Laboratory results as given in patent US9580416B2, “Inhibitors of Bruton's tyrosine kinase” (PHARMACYCLICS LLC, priority 2014, dated 2017).

What was measured:
Type in all cases: biochemical
Btk = Btk (Homo sapiens, UniProt Q06187); experiment: Btk kinase activity, TR-FRET assay; details: read-out: Btk (IC50)
Protocol: (§1) Btk kinase activity is determined using a time-resolved fluorescence resonance energy transfer (TR-FRET) methodology. Measurements are performed in a reaction volume of 50 μL using 96-well assay plates. Kinase enzyme, inhibitor, ATP (at the Km for the kinase), and 1 […] (Biotin-AVLESEEELYSSARQ-NH2) are incubated in a reaction buffer composed of 20 mM Tris, 50 mM NaCl, MgCl2 (5-25 mM depending on the kinase), MnCl2 (0-10 mM), 1 mM DTT, 0.1 mM EDTA, 0.01% bovine serum albumin, 0.005% Tween-20, and 10% DMSO at pH 7.4 for one hour. The reaction is quenched by the addition of 1.2 equivalents of EDTA (relative to divalent cation) in 25 μL of 1× Lance buffer (Perkin-Elmer). Streptavidin-APC (Perkin-Elmer) and Eu-labeled p-Tyr100 antibody (Perkin-Elmer) in 1× Lance buffer are added in a 25 μL volume to give final concentrations of 100 nM and 2.5 nM, respectively, and the mixture is allowed to incubate for one hour. The TR-FRET signal is measured on a multimode plate reader with an excitation wavelength (λEx) of 330 nm and detection wavelengths (λEm) of 615 and 665 nm. Activity is determined by the ratio of the fluorescence at 665 nm to that at 615 nm. For each compound, enzyme activity is measured at various concentrations of compound. Negative control reactions are performed in the absence of inhibitor in replicates of six, and two no-enzyme controls are used to determine baseline fluorescence levels. Inhibition constants, Ki(app), ware obtained using the program BatchKi (Kuzmic et al. (2000), Anal. Biochem. 286:45-50). IC50s are obtained according to the equation: IC50={Ki(app)/(1+[ATP]/Km^ATP)}+[E]total/2;
(§2) For all kinases, [ATP]=Km^ATP, [Btk]total=0.5 nM and [Lck]total=6 nM.

Lck = Lck (Homo sapiens, UniProt P06239); experiment: Lck kinase activity, TR-FRET assay; details: read-out: LCK (IC50)
Chain of Lck (P06239 whole entry, species assumed): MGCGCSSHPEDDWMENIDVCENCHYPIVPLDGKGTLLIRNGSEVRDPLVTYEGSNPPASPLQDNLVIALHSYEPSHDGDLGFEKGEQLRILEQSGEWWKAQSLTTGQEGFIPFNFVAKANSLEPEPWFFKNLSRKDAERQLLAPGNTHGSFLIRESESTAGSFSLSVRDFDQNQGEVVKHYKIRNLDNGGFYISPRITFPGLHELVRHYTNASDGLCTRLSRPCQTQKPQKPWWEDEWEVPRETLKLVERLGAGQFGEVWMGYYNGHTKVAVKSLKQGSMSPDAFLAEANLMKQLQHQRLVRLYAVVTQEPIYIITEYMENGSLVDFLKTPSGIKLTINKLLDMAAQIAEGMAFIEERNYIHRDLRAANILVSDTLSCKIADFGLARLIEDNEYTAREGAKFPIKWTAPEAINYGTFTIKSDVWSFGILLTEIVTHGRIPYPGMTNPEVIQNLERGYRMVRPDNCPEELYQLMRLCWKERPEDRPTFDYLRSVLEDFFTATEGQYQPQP
Protocol: as §1, §2

EGFR = EGFR (Homo sapiens, UniProt P00533); experiment: Inhibition of a panel of kinases, in vitro HotSpot kinase assay: EGFR
Chain of EGFR (P00533 25-1210): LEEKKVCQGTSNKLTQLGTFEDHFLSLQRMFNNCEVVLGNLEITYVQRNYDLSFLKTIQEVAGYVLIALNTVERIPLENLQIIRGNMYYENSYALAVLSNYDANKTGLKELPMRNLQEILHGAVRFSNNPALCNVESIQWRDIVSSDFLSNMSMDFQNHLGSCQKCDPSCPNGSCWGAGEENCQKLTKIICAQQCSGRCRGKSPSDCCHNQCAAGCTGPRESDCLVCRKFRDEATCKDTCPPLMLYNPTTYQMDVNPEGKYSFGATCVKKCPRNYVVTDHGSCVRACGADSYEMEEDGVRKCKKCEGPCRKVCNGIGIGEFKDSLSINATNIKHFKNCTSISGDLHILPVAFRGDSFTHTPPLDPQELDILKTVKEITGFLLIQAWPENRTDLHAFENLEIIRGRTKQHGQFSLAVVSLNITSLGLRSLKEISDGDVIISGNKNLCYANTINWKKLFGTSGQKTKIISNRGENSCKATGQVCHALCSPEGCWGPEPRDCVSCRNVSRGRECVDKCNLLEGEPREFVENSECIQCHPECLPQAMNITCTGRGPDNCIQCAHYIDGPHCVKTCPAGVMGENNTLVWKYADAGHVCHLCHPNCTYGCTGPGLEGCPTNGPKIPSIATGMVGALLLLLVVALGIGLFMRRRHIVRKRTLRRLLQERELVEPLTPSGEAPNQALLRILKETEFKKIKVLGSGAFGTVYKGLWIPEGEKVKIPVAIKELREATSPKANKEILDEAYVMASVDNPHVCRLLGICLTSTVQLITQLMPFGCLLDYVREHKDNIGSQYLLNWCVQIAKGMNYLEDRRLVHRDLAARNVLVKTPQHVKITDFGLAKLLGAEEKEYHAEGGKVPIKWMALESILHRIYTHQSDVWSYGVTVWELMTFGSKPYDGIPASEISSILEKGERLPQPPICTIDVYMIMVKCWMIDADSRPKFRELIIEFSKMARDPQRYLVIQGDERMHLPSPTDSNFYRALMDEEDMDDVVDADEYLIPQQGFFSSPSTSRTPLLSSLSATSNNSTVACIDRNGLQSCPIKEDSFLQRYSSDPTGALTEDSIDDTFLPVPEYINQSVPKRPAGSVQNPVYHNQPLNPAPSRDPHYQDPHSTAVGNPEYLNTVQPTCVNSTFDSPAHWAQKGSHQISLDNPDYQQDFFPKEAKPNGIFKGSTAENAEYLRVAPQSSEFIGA
Protocol: The degree of inhibition of a panel of kinases is determined using the in vitro HotSpot kinase assay (purified enzymes, ^33P-ATP, an appropriate substrate and 1 uM ATP).

Chain of Btk (Q06187 whole entry): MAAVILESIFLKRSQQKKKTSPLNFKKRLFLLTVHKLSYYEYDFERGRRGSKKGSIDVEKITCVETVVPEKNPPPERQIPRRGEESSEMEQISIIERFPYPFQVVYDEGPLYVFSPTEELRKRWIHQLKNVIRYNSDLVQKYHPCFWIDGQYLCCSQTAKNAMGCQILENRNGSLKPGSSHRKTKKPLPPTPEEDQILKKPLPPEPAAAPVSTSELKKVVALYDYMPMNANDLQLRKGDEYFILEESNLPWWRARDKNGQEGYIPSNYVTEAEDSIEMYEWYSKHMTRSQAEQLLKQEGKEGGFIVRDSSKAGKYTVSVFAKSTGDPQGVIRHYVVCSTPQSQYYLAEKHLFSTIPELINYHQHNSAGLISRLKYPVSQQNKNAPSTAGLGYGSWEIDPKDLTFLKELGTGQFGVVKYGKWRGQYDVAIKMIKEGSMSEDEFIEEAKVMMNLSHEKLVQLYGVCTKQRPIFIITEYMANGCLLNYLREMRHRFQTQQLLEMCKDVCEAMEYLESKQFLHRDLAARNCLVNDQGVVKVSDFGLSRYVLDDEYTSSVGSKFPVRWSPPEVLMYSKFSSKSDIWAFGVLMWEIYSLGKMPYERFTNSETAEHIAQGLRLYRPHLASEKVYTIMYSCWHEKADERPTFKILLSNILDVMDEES

Compound	IC50 (Btk)	IC50 (Lck)	IC50 (EGFR)
CN(C)C/C=C/C(=O)N1CC[C@@H](Nc2n[nH]c3nccc(Oc4ccc(Cl)cc4)c23)C1 [compound 3, (2E)-1-[(3R)-{[4-(4-chlorophenoxy)-1H-pyrazolo[3,4-b]pyridin-3-yl]amino}pyrrolidin-1-yl]-4-(dimethylamino)but-2-en-1-one]	< 100 nM	> 10000 nM	100 to 1000 nM
C=CC(=O)N1CC[C@@H](Nc2c[nH]c3nccc(Oc4ccc(Cl)cc4)c23)C1 [compound 7, 1-[(3R)-3-{[4-(4-chlorophenoxy)-1H-pyrrolo[2,3-b]pyridin-3-yl]amino}pyrrolidin-1-yl]prop-2-en-1-one]	< 100 nM	1000 to 10000 nM	1000 to 10000 nM
CN(C/C=C/C(=O)N1CC[C@@H](Nc2n[nH]c3nccc(Oc4ccc(Oc5ccccc5)cc4)c23)C1)C1CC1 [compound 10, (2E)-4-[cyclopropyl(methyl)amino]-1-[(3R)-3-{[4-(4-phenoxyphenoxy)-1H-pyrazolo[3,4-b]pyridin-3-yl]amino}pyrrolidin-1-yl]but-2-en-1-one]	< 100 nM	< 100 nM	100 to 1000 nM
CN(C/C=C/C(=O)N1CC[C@@H](Nc2n[nH]c3nccc(Oc4cccc(Oc5ccccc5)c4)c23)C1)C1CC1 [compound 11, (2E)-4-[cyclopropyl(methyl)amino]-1-[(3R)-3-{[4-(3-phenoxyphenoxy)-1H-pyrazolo[3,4-b]pyridin-3-yl]amino}pyrrolidin-1-yl]but-2-en-1-one]	< 100 nM	1000 to 10000 nM	1000 to 10000 nM
CN(C)C/C=C/C(=O)N1CC[C@@H](Nc2n[nH]c3nccc(Oc4cccc(Oc5ccccc5)c4)c23)C1 [compound 12, (2E)-4-(dimethylamino)-1-[(3R)-3-{[4-(3-phenoxyphenoxy)-1H-pyrazolo[3,4-b]pyridin-3-yl]amino}pyrrolidin-1-yl]but-2-en-1-one]	< 100 nM	1000 to 10000 nM	1000 to 10000 nM
CN(C)C/C=C/C(=O)N1CCC[C@@H](Nc2n[nH]c3nccc(Oc4cccc(Oc5ccccc5)c4)c23)C1 [compound 13, (2E)-4-(dimethylamino)-1-[(3R)-3-{[4-(3-phenoxyphenoxy)-1H-pyrazolo[3,4-b]pyridin-3-yl]amino}piperidin-1-yl]but-2-en-1-one]	< 100 nM	100 to 1000 nM	100 to 1000 nM
CN(C)C/C=C/C(=O)N1CC[C@@H](Oc2n[nH]c3nccc(Nc4ccc(Oc5ccccc5)cc4)c23)C1 [compound 14, (2E)-4-(dimethylamino)-1-[(3R)-3-({4-[(4-phenoxyphenyl)amino]-1H-pyrazolo[3,4-b]pyridin-3-yl}oxy)pyrrolidin-1-yl]but-2-en-1-one]	< 100 nM	< 100 nM	< 100 nM
CN(C)C/C=C/C(=O)N1CC[C@@H](Nc2n[nH]c3nccc(Oc4ccn(Cc5ccccc5)c(=O)c4)c23)C1 [compound 15, 1-benzyl-4-[(3-{[(3R)-1-[(2E)-4-(dimethylamino)but-2-enoyl]pyrrolidin-3-yl]amino}-1H-pyrazolo[3,4-b]pyridin-4-yl)oxy]-1,2-dihydropyridin-2-one]	100 to 1000 nM	> 10000 nM	> 10000 nM
CN(C)C/C=C/C(=O)N1CC[C@@H](Nc2n[nH]c3nccc(Oc4ccc(-c5ncco5)c(Cl)c4)c23)C1 [compound 16, (2E)-1-[(3R)-3-({4-[3-chloro-4-(1,3-oxazol-2-yl)phenoxy]-1H-pyrazolo[3,4-b]pyridin-3-yl}amino)pyrrolidin-1-yl]-4-(dimethylamino)but-2-en-1-one]	100 to 1000 nM	1000 to 10000 nM	1000 to 10000 nM
CN(C)C/C=C/C(=O)N1CC[C@@H](Oc2n[nH]c3nccc(Nc4cccc(Oc5ccccc5)c4)c23)C1 [compound 17, (2E)-4-(dimethylamino)-1-[(3R)-3-({4-[(3-phenoxyphenyl)amino]-1H-pyrazolo[3,4-b]pyridin-3-yl}oxy)pyrrolidin-1-yl]but-2-en-1-one]	< 100 nM	100 to 1000 nM	< 100 nM
N#C/C(=C\C1CC1)C(=O)N1CC[C@@H](Nc2n[nH]c3nccc(Oc4ccc(Oc5ccccc5)cc4)c23)C1 [compound 18, (2E)-3-cyclopropyl-2-[(E)-(3R)-{[4-(4-phenoxyphenoxy)-1H-pyrazolo[3,4-b]pyridin-3-yl]amino}pyrrolidine-1-carbonyl]prop-2-enenitrile]	< 100 nM	100 to 1000 nM	< 100 nM
c1ccc(Oc2ccc(Oc3ncnc4[nH]nc(N[C@@H]5CCCNC5)c34)cc2)cc1 [compound 50]	> 10000 nM		> 10000 nM
N#Cc1ccnc(NC(=O)c2ccc(Oc3ccnc4[nH]nc(N[C@H]5CC[C@H](O)CC5)c34)cc2)c1 [compound 82, N-(4-cyanopyridin-2-yl)-4-[(3-{[(R,4R)-4-hydroxycyclohexyl]amino}-1H-pyrazolo[3,4-b]pyridin-4-yl)oxy]benzamide]	< 100 nM	100 to 1000 nM	
CC1(C(=O)N2CCC[C@@H](Nc3n[nH]c4nccc(Oc5ccc(C(=O)Nc6cc(C#N)ccn6)cc5)c34)C2)COC1 [compound 83, N-(4-cyanopyridin-2-yl)-4-[(3-{[(3R)-1-(3-methyloxetane-3-carbonyl)piperidin-3-yl]amino}-1H-pyrazolo[3,4-b]pyridin-4-yl)oxy]benzamide]	< 100 nM	100 to 1000 nM	
CC1(C(=O)N2CCC[C@@H](Nc3n[nH]c4nccc(Oc5ccc(C(=O)Nc6cc(C(F)(F)F)ccn6)cc5)c34)C2)COC1 [compound 84, 4-[(3-{[(3R)-1-(3-methyloxetane-3-carbonyl)piperidin-3-yl]amino}-1H-pyrazolo[3,4-b]pyridin-4-yl)oxy]-N-[4-(trifluoromethyl)pyridin-2-yl]benzamide]	< 100 nM	100 to 1000 nM	
Cc1cc(NC(=O)c2cccc(Oc3ccnc4[nH]nc(N[C@@H]5CCCNC5)c34)c2)ccc1C(C)C [compound 258, (R)—N-(4-isopropyl-3-methylphenyl)-3-(3-(piperidin-3-ylamino)-1H-pyrazolo[3,4-b]pyridin-4-yloxy)benzamide]	100 to 1000 nM		
Cc1cc(NC(=O)c2cccc(Nc3ccnc4[nH]nc(O[C@@H]5CCCNC5)c34)c2)ccc1C(C)C [compound 259, (R)—N-(4-isopropyl-3-methylphenyl)-3-(3-(piperidin-3-yloxy)-1H-pyrazolo[3,4-b]pyridin-4-ylamino)benzamide]	100 to 1000 nM		
Cc1cc(NC(=O)c2cccc(Oc3ccnc4[nH]nc(N[C@H]5CCNC5)c34)c2)ccc1C(C)C [compound 260, (S)—N-(4-isopropyl-3-methylphenyl)-3-(3-(pyrrolidin-3-ylamino)-1H-pyrazolo[3,4-b]pyridin-4-yloxy)benzamide]	100 to 1000 nM		
c1ccc(Oc2ccc(Oc3ccnc4[nH]nc(NC5CCNCC5)c34)cc2)cc1 [compound 261]	< 100 nM		
c1ccc(Oc2ccc(Oc3ccnc4[nH]nc(NCC5CCNCC5)c34)cc2)cc1 [compound 262, 4-(4-phenoxyphenoxy)-N-(piperidin-4-ylmethyl)-1H-pyrazolo[3,4-b]pyridin-3-amine]	100 to 1000 nM		
c1ccc(Oc2ccc(Oc3ccnc4[nH]nc(NC[C@@H]5CCCNC5)c34)cc2)cc1 [compound 263, (R)-4-(4-phenoxyphenoxy)-N-(piperidin-3-ylmethyl)-1H-pyrazolo[3,4-b]pyridin-3-amine]	100 to 1000 nM		
c1ccc(Oc2ccc(Oc3ccnc4[nH]nc(NC[C@H]5CCNC5)c34)cc2)cc1 [compound 264, (S)-4-(4-phenoxyphenoxy)-N-(pyrrolidin-3-ylmethyl)-1H-pyrazolo[3,4-b]pyridin-3-amine]	100 to 1000 nM		
C=CC(=O)N1CCC(Nc2n[nH]c3nccc(Oc4ccc(Oc5ccccc5)cc4)c23)CC1 [compound 265, 1-(4-(4-(4-phenoxyphenoxy)-1H-pyrazolo[3,4-b]pyridin-3-ylamino)piperidin-1-yl)prop-2-en-1-one]	< 100 nM		
C=CC(=O)N1CCC(CNc2n[nH]c3nccc(Oc4ccc(Oc5ccccc5)cc4)c23)CC1 [compound 266, 1-(4-((4-(4-phenoxyphenoxy)-1H-pyrazolo[3,4-b]pyridin-3-ylamino)methyl)piperidin-1-yl)prop-2-en-1-one]	< 100 nM		
C=CC(=O)N1CCC[C@@H](CNc2n[nH]c3nccc(Oc4ccc(Oc5ccccc5)cc4)c23)C1 [compound 267, (S)-1-(3-((4-(4-phenoxyphenoxy)-1H-pyrazolo[3,4-b]pyridin-3-ylamino)methyl)piperidin-1-yl)prop-2-en-1-one]	< 100 nM		
C=CC(=O)N1CC[C@H](CNc2n[nH]c3nccc(Oc4ccc(Oc5ccccc5)cc4)c23)C1 [compound 268, (R)-1-(3-((4-(4-phenoxyphenoxy)-1H-pyrazolo[3,4-b]pyridin-3-ylamino)methyl)pyrrolidin-1-yl)prop-2-en-1-one]	< 100 nM		
